The subject of one experiment is SW480. In words: In vitro cytotoxicity MTS assay. A general note: Tetrazolium dyes change colour on reduction, which living cells bring about.
Another experiment deals with Colo-201. In words: In vitro cytotoxicity MTS assay. The class given is cell-based. Particulars: Homo sapiens, 72 hours, mean of 2 to 5 determinations.
A further experiment relates to CCD18Co. In words: In vitro cytotoxicity MTS assay. The class given is cell-based. The following applies: Homo sapiens, CCD-18Co, 72 hours, mean of 2 to 5 determinations.
For another experiment, the system named is Colo320HSR. In words: In vitro cytotoxicity MTS assay. It is filed as cell-based. Particulars: Homo sapiens, COLO-320-HSR, 72 hours, mean of 2 to 5 determinations.
In the next experiment the test system is LS174T. In words: In vitro cytotoxicity MTS assay. It is filed as cell-based. The following applies: Homo sapiens, 72 hours, mean of 2 to 5 determinations, asterisk = sensitive.
A further experiment has as its system SW620. Kind of experiment: In vitro cytotoxicity MTS assay. It is filed as cell-based. The following applies: Homo sapiens, SW-620, 72 hours, mean of 2 to 5 determinations.
The next experiment deals with HCT116. Kind of experiment: In vitro cytotoxicity MTS assay. The class given is cell-based. Particulars: Homo sapiens, HCT-116, 72 hours, mean of 2 to 5 determinations.
In another experiment the test system is Colo-205. In words: In vitro cytotoxicity MTS assay. The class given is cell-based. The following applies: Homo sapiens, 72 hours, mean of 2 to 5 determinations.
A further experiment has as its system LOVO. In words: In vitro cytotoxicity MTS assay. It is filed as cell-based. Particulars: Homo sapiens, 72 hours, mean of 2 to 5 determinations, asterisk = sensitive.
The next experiment deals with SW403. In words: In vitro cytotoxicity MTS assay. It is filed as cell-based. The following applies: Homo sapiens, SW-403, 72 hours, mean of 2 to 5 determinations, asterisk = sensitive.
Another experiment deals with SW1417. Kind of experiment: In vitro cytotoxicity MTS assay. The class given is cell-based. The following applies: Homo sapiens, 72 hours, mean of 2 to 5 determinations.
The test system of another experiment is HCT8. In words: In vitro cytotoxicity MTS assay. It is filed as cell-based. The following applies: Homo sapiens, HCT-8, 72 hours, mean of 2 to 5 determinations.
In a further experiment the test system is Colo320DM. In words: In vitro cytotoxicity MTS assay.
In the next experiment the test system is HCT116S542. In words: In vitro cytotoxicity MTS assay. The following applies: Homo sapiens, 72 hours, mean of 2 to 5 determinations. The class given is cell-based.
Another experiment concerns Sk-Co-1. In words: In vitro cytotoxicity MTS assay. The class given is cell-based. Particulars: Homo sapiens, 72 hours, mean of 2 to 5 determinations.
For the next experiment, the system named is CX-1. In words: In vitro cytotoxicity MTS assay. The following applies: Homo sapiens, 72 hours, mean of 2 to 5 determinations. It is filed as cell-based.
A further experiment deals with CCD_33C0. Kind of experiment: In vitro cytotoxicity MTS assay. It is filed as cell-based. The following applies: Homo sapiens, 72 hours, mean of 2 to 5 determinations, asterisk = sensitive.
Another experiment has as its system SW837. In words: In vitro cytotoxicity MTS assay. The class given is cell-based. Particulars: Homo sapiens, 72 hours, mean of 2 to 5 determinations.
The test system of a further experiment is MIP. In words: In vitro cytotoxicity MTS assay. It is filed as cell-based. The following applies: Homo sapiens, 72 hours, mean of 2 to 5 determinations.
The next experiment relates to T84. In words: In vitro cytotoxicity MTS assay. It is filed as cell-based. Particulars: Homo sapiens, 72 hours, mean of 2 to 5 determinations.
Another experiment has as its system HT-29. Kind of experiment: In vitro cytotoxicity MTS assay. Particulars: Homo sapiens, 72 hours, mean of 2 to 5 determinations. It is filed as cell-based.
Another experiment relates to Caco2. Kind of experiment: In vitro cytotoxicity MTS assay. The following applies: Homo sapiens, Caco-2, 72 hours, mean of 2 to 5 determinations, asterisk = sensitive. The class given is cell-based.
The subject of experiment [1] is CACO2 colon cancer cell line. Particulars: serum starved, 20 ng/ml EGF, 0.5, 6 and 18 hours, vs media alone. Here is the method:
(§1) Control cells were treated with media alone. The expression profiling was performed, and data was analyzed using GeneChip® Expression Analysis software MAS 5.0 (Affymetrix, Santa Clara, Calif.).
(§2) The colon cells were grown using standard cell culture conditions: RPMI 1640 supplemented to contain 10% fetal bovine serum, 100 IU/ml penicillin, […] streptomycin, 2 mM L-glutamine and 10 mM Hepes (all from GibcoBRL, Rockville, Md.). RNA was isolated from 50-70% confluent cells or drug-treated cells using the RNeasy™ kits commercially available from Qiagen (Valencia, Calif.). Quality of the RNA was checked by measuring the 28s:18s ribosomal RNA ratio using Agilent 2100 bioanalyzer (Agilent, Technologies, Rockville, Md.). Concentration of total RNA was determined spectrophotometrically. 10 μg of total RNA from each cell line was used to prepare biotinylated probe according to the Affymetrix Genechip® Expression Analysis Technical Manual, 2001. Targets were hybridized to Affymetrix high density oligonucleotide array human HG-U133 set chips (Affymetrix, Santa Clara, Calif.). Arrays were then washed, and stained using the GeneChip Fluidics station according to the manufacture's instructions. The HG-U133 set consisting of two GeneChip® arrays contains nearly 45,000 probe sets representing more than 39,000 transcripts derived from approximately 33,000 well-substantiated human genes.
(§3) For the EGF induction studies, the colon cell line CACO2 and the lung cancer H292 cell line were washed 2×PBS, and the media was changed to RPMI without serum. The next day the cells were treated with 20 ng/ml EGF, and eventually lysed for RNA isolation 0.5, 6 and 18 hours post treatment. Gene expression was profiled as described below.

Experiment [2] concerns H292 lung cancer cell line. The following applies: serum starved, 20 ng/ml EGF, 0.5, 6 and 18 hours, vs media alone. On the procedure:
as §1, §2, §3

We go through two compounds from patent US20060234237A1 (priority 2004, published 2006).

Where a name gives a salt, the structure may show the parent alone.

Procedure for Colo320DM: (§4) The IC50 for each cell line was assessed by MTS assays. The average IC50 values along with standard deviations were calculated from two to five individual determinations for each cell line. […] The IC50 unit is μM.
(§5) Cytotoxicity was assessed in cells by MTS (3-(4,5-dimethylthiazol-2-yl)-5-(3-carboxymethoxyphenyl)-2-(4-sulphenyl)-2H-tetrazolium, inner salt) assay (T. L. Riss et al., 1992, Mol. Biol. Cell, 3 (Suppl.): 184a).
(§6) To carry out the assays, the colon cells were plated at 4,000 cell/well in 96 well microtiter plates and 24 hours later serial diluted drugs were added. […] The cells were incubated at 37° C. for 72 hours at which time the tetrazolium dye MTS (333 μg/ml final concentration) in combination with the electron coupling agent phenazine methosulfate (25 μM final concentration) was added. A dehydrogenase enzyme in live cells reduces the MTS to a form that absorbs light at 492 nm that can be quantified spectrophotometrically. The greater the absorbency, the greater the number of live cells. The results were expressed as an IC50, which is the drug concentration required to inhibit cell proliferation (i.e., absorbance at 450 mm) to 50% of that of untreated control cells. The mean IC50 and standard deviation (SD) from multiple tests for each cell line were calculated.
Procedure for SW480: as §4, §5, §6

For orientation: IC50 means the concentration at which inhibition is half-maximal. Low values mean inhibition by little substance, high ones a need for much substance. As to `C#Cc1cccc(Nc2ncnc3cc(OCCOC)c(OCCOC)cc23)c1` [BMS-461453, erlotinib HCl], the IC50 with SW480 (Homo sapiens, SW480, 72 h) was above 10 µM; in the experiment on Colo-201, above 10 µM; with CCD18Co, 7.1 µM; in the experiment on Colo320HSR, above 10 µM; in the experiment on LS174T, 3.5 µM; in the experiment with SW620 it was above 10 µM. For the same compound, the IC50 in the experiment with HCT116 is above 10 µM; in the experiment with Colo-205, above 10 µM; with LOVO, 2.3 µM; in the experiment with SW403, 5.7 µM; with SW1417, above 10 µM; in the experiment on HCT8, above 10 µM. For the same compound, the IC50 in the experiment on Colo320DM (Homo sapiens, COLO 320DM, 72 h) is above 10 µM; with HCT116S542 it was above 10 µM; in the experiment with Sk-Co-1, 9 µM; in the experiment on CX-1, above 10 µM; with CCD_33C0 it was 2 µM; with SW837 it was 7.2 µM. In addition, the IC50 with MIP was 9.7 µM; with T84, above 10 µM; in the experiment with HT-29 it was above 10 µM; with Caco2, 5.5 µM. Further, the “Sensitivity of cell line to the EGFR inhibitor” value was “insensitive” with SW480 (SW480, expressing EGFR) and “resistant” with Colo320DM (COLO320_DM, does not express EGFR).
As for epidermal growth factor [EGFR], the “Expression of EphA1 (EPHA1) stimulated” value in experiment [1] was “Expression stimulated 2 fold by”. Moreover, in experiment [2], the “Expression of 3-hydroxy-3-methylglutaryl-Coenzyme A synthase 2 stimulated” value is reported as “Expression stimulated 3 fold by”; the “Expression of BTG family, member 2 (BTG2) stimulated” value is on record as “Expression stimulated 2 fold by”; the “Expression of cystic fibrosis transmembrane conductance regulator (CFTR) stimulated” value is listed as “Expression stimulated 2 fold by”; the “Expression of prostaglandin G/H synthase and cyclooxygenase stimulated” value was “Expression stimulated 6 fold by”. The “Expression of serine (or cysteine) proteinase inhibitor, clade B (ovalbumin), member 5 (SERPINB5) stimulated” value in experiment [2] was “Expression stimulated 2 fold by”.
